Tests used:
Assay in all cases: relative viability (nuclei count vs DMSO), 5 days (fraction); higher = more cells survive
Idelalisib + Decitabine = compound: CC[C@H](Nc1ncnc2[nH]cnc12)c1nc2cccc(F)c2c(=O)n1-c1ccccc1 [Idelalisib] + Nc1ncn([C@H]2C[C@H](O)[C@@H](CO)O2)c(=O)n1 [Decitabine] (partner 2 µM)
Summary of the method: (§1)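 Values are medians from duplicate plates. Each reflects relative viability, defined as the nuclei count of treated wells over that of vehicle wells. Lung cancer cell lines in 1536-well plates were pin-tool dosed one day after seeding with one drug alone or with a fixed anchor-drug dose plus five library-drug doses (not always all listed) in √10 steps, then fixed, stained and imaged at 4× after 5 days.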

Idelalisib + Lapatinib = compound: CC[C@H](Nc1ncnc2[nH]cnc12)c1nc2cccc(F)c2c(=O)n1-c1ccccc1 [Idelalisib] + CS(=O)(=O)CCNCc1ccc(-c2ccc3ncnc(Nc4ccc(OCc5cccc(F)c5)c(Cl)c4)c3c2)o1 [Lapatinib] (partner 2 µM)
Summary of the method: as §1

Pemetrexed + Crizotinib = compound: Nc1nc2[nH]cc(CCc3ccc(C(=O)N[C@@H](CCC(=O)O)C(=O)O)cc3)c2c(=O)[nH]1 [Pemetrexed] + C[C@@H](Oc1cc(-c2cnn(C3CCNCC3)c2)cnc1N)c1c(Cl)ccc(F)c1Cl [Crizotinib] (partner 1 µM)
Summary of the method: as §1

Pemetrexed + Trametinib = compound: Nc1nc2[nH]cc(CCc3ccc(C(=O)N[C@@H](CCC(=O)O)C(=O)O)cc3)c2c(=O)[nH]1 [Pemetrexed] + CC(=O)Nc1cccc(-n2c(=O)n(C3CC3)c(=O)c3c(Nc4ccc(I)cc4F)n(C)c(=O)c(C)c32)c1 [Trametinib] (partner 0.02 µM)
Summary of the method: as §1

Cell Line | relative viability (Idelalisib + Decitabine; first compound 0.04 µM) | relative viability (Idelalisib + Decitabine; first compound 0.1265 µM) | relative viability (Idelalisib + Decitabine; first compound 0.4 µM) | relative viability (Idelalisib + Decitabine; first compound 1.265 µM) | relative viability (Idelalisib + Decitabine; first compound 4 µM) | relative viability (Idelalisib + Lapatinib; first compound 0.04 µM) | relative viability (Idelalisib + Lapatinib; first compound 0.1265 µM) | relative viability (Idelalisib + Lapatinib; first compound 0.4 µM) | relative viability (Idelalisib + Lapatinib; first compound 1.265 µM) | relative viability (Idelalisib + Lapatinib; first compound 4 µM) | relative viability (Pemetrexed + Crizotinib; first compound 0.002 µM) | relative viability (Pemetrexed + Crizotinib; first compound 0.006325 µM) | relative viability (Pemetrexed + Crizotinib; first compound 0.02 µM) | relative viability (Pemetrexed + Crizotinib; first compound 0.06325 µM) | relative viability (Pemetrexed + Crizotinib; first compound 0.2 µM) | relative viability (Pemetrexed + Trametinib; first compound 0.002 µM) | relative viability (Pemetrexed + Trametinib; first compound 0.006325 µM) | relative viability (Pemetrexed + Trametinib; first compound 0.02 µM) | relative viability (Pemetrexed + Trametinib; first compound 0.06325 µM) | relative viability (Pemetrexed + Trametinib; first compound 0.2 µM)
ABC-1 | 1.03 | 1.2 | 1.08 | 1.17 | 1.15 | 1.11 | 1.19 | 1.13 | 1.01 | 1.08 | 0.997 | 1.2 | 1.18 | 1 | 1.05 | – | – | – | – | –
EBC-1 | – | – | – | – | – | 0.225 | 0.198 | 0.233 | 0.239 | 0.222 | 0.175 | 0.174 | 0.209 | 0.165 | 0.183 | – | – | – | – | –
NCI-H1703 | – | – | – | – | – | 1.53 | 1.03 | 0.961 | 1.29 | 0.618 | 0.687 | 0.566 | 0.763 | 0.628 | 0.739 | – | – | – | – | –
NCI-H1395 | 0.724 | 0.657 | 0.726 | 0.712 | 0.607 | 1.01 | 0.948 | 0.993 | 0.933 | 0.758 | – | – | – | – | – | 0.932 | 1 | 1.13 | 0.954 | 1.03
NCI-H1563 | – | – | – | – | – | 1.01 | 1.05 | 0.833 | 1 | 0.83 | 0.946 | 0.837 | 0.878 | 0.911 | 0.938 | – | – | – | – | –
NCI-H2228 | – | – | – | – | – | 1.21 | 1.14 | 0.875 | 1.23 | 1.03 | 0.424 | 0.514 | 0.409 | 0.358 | 0.31 | 0.509 | 0.611 | 0.597 | 0.318 | 0.285
NCI-H1299 | – | – | – | – | – | 0.927 | 0.977 | 0.943 | 1.09 | 1.02 | 0.962 | 0.942 | 0.98 | 0.881 | 0.927 | – | – | – | – | –
A549 | 0.263 | 0.281 | 0.21 | 0.345 | 0.247 | 0.96 | 0.996 | 0.924 | 0.923 | 0.832 | 0.672 | 0.653 | 0.971 | 0.761 | 0.78 | – | – | – | – | –
NCI-H522 | 0.665 | 0.67 | 0.645 | 0.631 | 0.698 | – | – | – | – | – | – | – | – | – | – | 0.971 | 0.722 | 0.739 | 0.784 | 0.73
NCI-H1648 | 0.512 | 0.58 | 0.536 | 0.507 | 0.429 | – | – | – | – | – | – | – | – | – | – | 0.517 | 0.292 | 0.63 | 0.398 | 0.442
NCI-H2342 | 0.802 | 0.764 | 0.658 | 0.668 | 0.618 | – | – | – | – | – | – | – | – | – | – | 0.763 | 0.757 | 0.773 | 0.857 | 0.841
Calu-6 | – | – | – | – | – | 1.04 | 1.06 | 1.05 | 1.02 | 1.06 | 0.814 | 0.754 | 0.922 | 0.72 | 0.68 | – | – | – | – | –

Source: the supplement of paper PMC10307832
